Patent US6274715A, “Tricyclic erythromycin derivatives” (priority 1997, dated 2001)
≈ marks a conversion by molar mass, not a printed value.

Legend:
Type in all cases: cell-based
[1] = system: MYCOBACTERIUM SMEGMATIS ATCC 114; test: In vitro antibacterial activity, MIC, BHI agar dilution; settings: M. smegmatis ATCC 114, unit assumed
[2] = system: ENTEROBACTER AEROGENES ATCC 13048; test: as above; settings: E. aerogenes ATCC 13048, unit assumed
[3] = system: STAPHYLOCOCCUS AUREUS A-5278; test: as above; settings: S. aureus A-5278, unit assumed
[4] = system: STAPHYLOCOCCUS AUREUS 1775; test: as above; settings: S. aureus 1775, unit assumed
ESCHERICHIA COLI SS = test: as above; settings: E. coli SS, unit assumed
[5] = system: PSEUDOMONAS AERUGINOSA BMH10; test: as above; settings: P. aeruginosa BMH10, unit assumed
[6] = system: STREPTOCOCCUS PYOGENES EES61; test: as above; settings: S. pyogenes EES61, unit assumed
[7] = system: STREPTOCOCCUS PYOGENES 930; test: as above; settings: S. pyogenes 930, unit assumed
[8] = system: STAPHYLOCOCCUS AUREUS ATCC 6538P; test: as above; settings: S. aureus ATCC 6538P, 35-37° C., 20 to 24 hours, unit assumed
ESCHERICHIA COLI JUHL = settings: E. coli JUHL; BHI agar; unit assumed
M[…] ATCC 9341 = test: In vitro antibacterial activity, MIC, BHI agar dilution; settings: M. luteus ATCC 9341, unit assumed
In short: (§1)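 Twelve successive aqueous dilutions of compound in Brain Heart Infusion agar were inoculated with 1:100 culture dilutions (1:10 for slow growers such as Micrococcus, Streptococcus) by Steers replicator and incubated at 35-37° C for 20 to 24 hours. MIC was the lowest concentration giving no growth, slight haze or sparse colonies versus drug-free control.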

STR[…] 508 = test: as above; settings: S. agalactiae CMX 508, unit assumed
In short: as §1

EN[…] ATCC 8043 = test: as above; settings: E. faecium ATCC 8043, unit assumed
In short: as §1

M[…] ATCC 4698 = test: as above; settings: M. luteus ATCC 4698, unit assumed
In short: as §1

CANDIDA ALBICANS CCH 442 = test: as above; settings: C. albicans CCH 442, unit assumed
ESCHERICHIA COLI KNK 437 = settings: E. coli KNK 437; BHI agar; unit assumed
[9] = system: STREPTOCOCCUS BOVIS A-5169; test: In vitro antibacterial activity, MIC, BHI agar dilution; settings: S. bovis A-5169, unit assumed
[10] = system: PSEUDOMONAS AERUGINOSA DPHD-5263; test: as above; settings: P. aeruginosa DPHD-5263, unit assumed
[11] = system: STAPHYLOCOCCUS AUREUS NCTC10649M; test: as above; settings: S. aureus NCTC10649M, unit assumed
[12] = system: PROVIDENCIA STUARTII CMX 640; settings: P. stuartii CMX 640; BHI agar; unit assumed
[13] = system: STAPHYLOCOCCUS EPIDERMIDIS 3519; settings: S. epidermidis 3519; BHI agar; unit assumed
H. Influenza Dill AMP R = test: In vitro antibacterial activity against H. Influenza Dill AMP R, MIC; settings: separate assay, unit assumed
Procedure: Representative compounds of the present invention were assayed in vitro for antibacterial activity as follows: Twelve petri dishes containing successive aqueous dilutions of the test compound mixed with 10 mL of sterilized Brain Heart Infusion (BHI) agar (Difco 0418-01-5) were prepared. Each plate was inoculated with 1:100 (or 1:10 for slow-growing strains, such as Micrococcus and Streptococcus) dilutions of up to 32 different microorganisms, using a Steers replicator block. The inoculated plates were incubated at 35-37° C. for 20 to 24 hours. In addition, a control plate, using BHI agar containing no test compound, was prepared and incubated at the beginning and end of each test.
After incubation, each plate was visually inspected. The minimum inhibitory concentration (MIC) was defmed as the lowest concentration of drug yielding no growth, a slight haze, or sparsely isolated colonies on the inoculum spot as compared to the growth control.
In a separate assay representative compounds of the invention were assayed in vitro for antibacterial activity against the H. Influenza Dill AMP R strain, according to the protocol described above.

[14] = system: KLEBSIELLA PNEUMONIAE ATCC 8045; test: In vitro antibacterial activity, MIC, BHI agar dilution; settings: K. pneumoniae ATCC 8045, unit assumed
ESCHERICHIA COLI H560 = test: as above; settings: E. coli H560, unit assumed
[15] = system: PSEUDOMONAS AERUGINOSA 5007; test: as above; settings: P. aeruginosa 5007, unit assumed
[16] = system: PSEUDOMONAS AERUGINOSA DPHD-2862; test: as above; settings: P. aeruginosa DPHD-2862, unit assumed
[17] = system: STAPHYLOCOCCUS AUREUS CMX 553; test: as above; settings: S. aureus CMX 553, unit assumed
[18] = system: PSEUDOMONAS AERUGINOSA K799/61; test: as above; settings: P. aeruginosa K799/61, unit assumed
PSEUDOMONAS CEPACIA 296I = test: as above; settings: P. cepacia 296I, unit assumed
[19] = system: PSEUDOMONAS AERUGINOSA K799/WT; test: as above; settings: P. aeruginosa K799/WT, unit assumed
[20] = system: STAPHYLOCOCCUS AUREUS CMX 642A; test: as above; settings: S. aureus CMX 642A, unit assumed
[21] = system: STREPTOCOCCUS PYOGENES PIU 2548; test: as above; settings: S. pyogenes PIU 2548, unit assumed
ESCHERICHIA COLI DC-2 = test: as above; settings: E. coli DC-2, unit assumed
[22] = system: STAPHYLOCOCCUS AUREUS A5177; test: as above; settings: S. aureus A5177, unit assumed

`CCC1OC(=O)C(C)C(=O)C(C)C(OC2OC(C)CC(N(C)C)C2O)C(C)(OC)CC(C)C2=NC(c3ccccc3)C(c3ccccc3)N3C(=O)OC1(C)C3C2C` (centres unmarked) [Example 7] gave an MIC [1] of 1.56 µg/mL (≈ 1.97 µM), an MIC [2] greater than 100 µg/mL and an MIC [3] of 100 µg/mL (≈ 127 µM). It also gave an MIC [4] of 100 µg/mL (≈ 127 µM), an MIC (ESCHERICHIA COLI SS) of 3.1 µg/mL (≈ 3.92 µM) and an MIC [5] greater than 100 µg/mL. The MIC [6] was 0.2 µg/mL (≈ 0.253 µM), the MIC [7] was 50 µg/mL (≈ 63.3 µM) and the MIC [8] was 3.1 µg/mL (≈ 3.92 µM). For the same compound, the MIC (ESCHERICHIA COLI JUHL) was greater than 100 µg/mL, the MIC (M[…] ATCC 9341) was 0.39 µg/mL (≈ 0.494 µM) and the MIC (STR[…] 508) was 0.2 µg/mL (≈ 0.253 µM). It also gave an MIC (EN[…] ATCC 8043) of 0.39 µg/mL (≈ 0.494 µM), an MIC (M[…] ATCC 4698) of 1.56 µg/mL (≈ 1.97 µM) and an MIC (CANDIDA ALBICANS CCH 442) greater than 100 µg/mL. For the same compound, the MIC (ESCHERICHIA COLI KNK 437) was greater than 100 µg/mL, the MIC [9] was 0.2 µg/mL (≈ 0.253 µM) and the MIC [10] was greater than 100 µg/mL. It also gave an MIC [11] of 3.1 µg/mL (≈ 3.92 µM), an MIC [12] greater than 100 µg/mL and an MIC [13] of 1.56 µg/mL (≈ 1.97 µM). For the same compound, the MIC (H. Influenza Dill AMP R) was 64 µg/mL (≈ 81 µM), the MIC [14] was greater than 100 µg/mL and the MIC (ESCHERICHIA COLI H560) was greater than 100 µg/mL. The MIC [15] was greater than 100 µg/mL, the MIC [16] was greater than 100 µg/mL and the MIC [17] was 3.1 µg/mL (≈ 3.92 µM). The MIC [18] was 6.2 µg/mL (≈ 7.85 µM), the MIC (PSEUDOMONAS CEPACIA 296I) was greater than 100 µg/mL and the MIC [19] was greater than 100 µg/mL. The MIC [20] was 3.1 µg/mL (≈ 3.92 µM), the MIC [21] was 1.56 µg/mL (≈ 1.97 µM) and the MIC (ESCHERICHIA COLI DC-2) was greater than 100 µg/mL.

With `CC[C@H]1OC(=O)[C@H](C)C(=O)[C@H](C)[C@@H](O[C@@H]2O[C@H](C)C[C@H](N(C)C)[C@H]2O)[C@](C)(OC)C[C@@H](C)C2=NC[C@H](COCc3cccc(F)c3)N3C(=O)O[C@@]1(C)[C@H]3[C@H]2C` [Example 72] the MIC [1] was 0.39 µg/mL (≈ 0.503 µM), the MIC [2] was 50 µg/mL (≈ 64.4 µM) and the MIC [3] was greater than 100 µg/mL. The MIC [4] was greater than 100 µg/mL, the MIC (ESCHERICHIA COLI SS) was 0.39 µg/mL (≈ 0.503 µM) and the MIC [5] was 50 µg/mL (≈ 64.4 µM). The MIC [6] was 0.01 µg/mL (≈ 0.0129 µM), the MIC [7] was 50 µg/mL (≈ 64.4 µM) and the MIC [8] was 0.1 µg/mL (≈ 0.129 µM). The MIC (ESCHERICHIA COLI JUHL) was 50 µg/mL (≈ 64.4 µM), the MIC (M[…] ATCC 9341) was no more than 0.005 µg/mL and the MIC (STR[…] 508) was 0.01 µg/mL (≈ 0.0129 µM). For the same compound, the MIC (EN[…] ATCC 8043) was 0.05 µg/mL (≈ 0.0644 µM), the MIC (M[…] ATCC 4698) was 0.2 µg/mL (≈ 0.258 µM) and the MIC (CANDIDA ALBICANS CCH 442) was greater than 100 µg/mL. It also gave an MIC (ESCHERICHIA COLI KNK 437) of 50 µg/mL (≈ 64.4 µM), an MIC [9] of no more than 0.005 µg/mL and an MIC [10] greater than 100 µg/mL. It also gave an MIC [11] of 0.1 µg/mL (≈ 0.129 µM), an MIC [12] greater than 100 µg/mL and an MIC [13] of 0.2 µg/mL (≈ 0.258 µM). It also gave an MIC [22] of 0.1 µg/mL (≈ 0.129 µM), an MIC (H. Influenza Dill AMP R) of 2 µg/mL (≈ 2.58 µM) and an MIC (ESCHERICHIA COLI H560) of 12.5 µg/mL (≈ 16.1 µM). It also gave an MIC [15] of 100 µg/mL (≈ 129 µM), an MIC [16] greater than 100 µg/mL and an MIC [17] of 0.1 µg/mL (≈ 0.129 µM). It also gave an MIC [18] of 0.39 µg/mL (≈ 0.503 µM), an MIC (PSEUDOMONAS CEPACIA 296I) of 50 µg/mL (≈ 64.4 µM) and an MIC [19] of 50 µg/mL (≈ 64.4 µM). It also gave an MIC [20] of 0.1 µg/mL (≈ 0.129 µM), an MIC [21] of 0.39 µg/mL (≈ 0.503 µM) and an MIC (ESCHERICHIA COLI DC-2) of 25 µg/mL (≈ 32.2 µM).

`CC[C@H]1OC(=O)[C@H](C)C(=O)[C@H](C)[C@@H](O[C@@H]2O[C@H](C)C[C@H](N(C)C)[C@H]2O)[C@](C)(OC)C[C@@H](C)C2=NCC(CNCc3ccccc3)N3C(=O)O[C@@]1(C)[C@H]3[C@H]2C` (some centres unmarked) [Example 131] gave an MIC [1] of 1.56 µg/mL (≈ 2.06 µM), an MIC [2] of 50 µg/mL (≈ 66.1 µM) and an MIC [3] greater than 100 µg/mL. It also gave an MIC [4] greater than 100 µg/mL, an MIC (ESCHERICHIA COLI SS) of 0.2 µg/mL (≈ 0.264 µM) and an MIC [5] greater than 100 µg/mL. The MIC [6] was 0.02 µg/mL (≈ 0.0264 µM), the MIC [7] was greater than 100 µg/mL and the MIC [8] was 0.39 µg/mL (≈ 0.515 µM). For the same compound, the MIC (ESCHERICHIA COLI JUHL) was 50 µg/mL (≈ 66.1 µM), the MIC (M[…] ATCC 9341) was 0.02 µg/mL (≈ 0.0264 µM) and the MIC (STR[…] 508) was 0.05 µg/mL (≈ 0.0661 µM). The MIC (EN[…] ATCC 8043) was 0.1 µg/mL (≈ 0.132 µM), the MIC (M[…] ATCC 4698) was 0.2 µg/mL (≈ 0.264 µM) and the MIC (CANDIDA ALBICANS CCH 442) was greater than 100 µg/mL. It also gave an MIC (ESCHERICHIA COLI KNK 437) of 25 µg/mL (≈ 33 µM), an MIC [10] greater than 100 µg/mL and an MIC [11] of 0.39 µg/mL (≈ 0.515 µM). It also gave an MIC [12] greater than 100 µg/mL, an MIC [13] of 0.39 µg/mL (≈ 0.515 µM) and an MIC [22] of 0.39 µg/mL (≈ 0.515 µM). For the same compound, the MIC (H. Influenza Dill AMP R) was 4 µg/mL (≈ 5.28 µM), the MIC (ESCHERICHIA COLI H560) was 12.5 µg/mL (≈ 16.5 µM) and the MIC [15] was greater than 100 µg/mL. For the same compound, the MIC [16] was greater than 100 µg/mL, the MIC [17] was 0.39 µg/mL (≈ 0.515 µM) and the MIC [18] was 0.78 µg/mL (≈ 1.03 µM). For the same compound, the MIC (PSEUDOMONAS CEPACIA 296I) was 25 µg/mL (≈ 33 µM), the MIC [19] was 50 µg/mL (≈ 66.1 µM) and the MIC [20] was 0.39 µg/mL (≈ 0.515 µM). For the same compound, the MIC [21] was 0.78 µg/mL (≈ 1.03 µM) and the MIC (ESCHERICHIA COLI DC-2) was 25 µg/mL (≈ 33 µM).
